Results published in US20260374766A1, “METHODS FOR TREATING CANCER” (Antares Therapeutics, Inc., priority 2022, published 2026).
Where two headings read alike, the source gives them in different places.

How the values were obtained:
[1] = target: T1, p53 Y220C mutant protein (amino acid residues 94-293) (Homo sapiens, UniProt P04637, Y220C); test: Surface Plasmon Resonance (SPR) assay, Kd_kinetic; format: binding; details: read-out: SPR P53 Y220C KD kinetic
T1 construct: p53 Y220C mutant protein (amino acid residues 94-293)
Outline: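 Biacore 8K SPR; 16 or 20 °C; Tris 50 mM pH 7.5, NaCl 100 mM, DTT 1 mM, Brij35 0.01%, Tween-20 0.05%, DMSO 1%. Kd_kinetic by 1:1 fit.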

H1299 p53 Y220C = test: Cell Proliferation Assay (CellTiter-Glo, CTG), H1299 p53 Y220C (NClH1299-inducible p53 Y220C); format: cell-based; details: Homo sapiens, NCI-H1299, 120 h, 5 days
Outline: (§1)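 NClH1299 lines stably transduced with Tet-inducible p53 Y220C or R273H, plus NUGC3, were treated with compound for 5 days at 250-500 cells/well. IC50 derived from CellTiter-Glo luminescent signal after 10 min room-temperature incubation.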

H1299 p53 R273H = test: Cell Proliferation Assay (CellTiter-Glo, CTG), H1299 p53 R273H (NClH1299-inducible p53 R273H); format: cell-based; details: Homo sapiens, NCI-H1299, 120 h, 5 days
Outline: as §1

NUGC3 p53 Y220C = test: Cell Proliferation Assay (CellTiter-Glo, CTG), NUGC3 p53 Y220C; format: cell-based; details: Homo sapiens, NUGC-3, 120 h, 5 days
Outline: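 Tet-One inducible p53 Y220C or R273H constructs were stably introduced into NCI-H1299 by lentiviral transduction; NUGC3 was used as is. Cells (250-500 per well) were exposed to compound for 5 days, then CellTiter-Glo was added for 10 min at room temperature and IC50 was calculated from luminescence.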

p53 Y220C = p53 Y220C (Homo sapiens, UniProt P04637, Y220C); test: Luciferase Reporter Assay (Luc), p53 response element, NClH1299 cells with inducible p53 Y220C; format: cell-based; details: 6 hour; for AC50: read-out: Luc P53 Y220C AC50
Outline: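 Steps: seed 5,000 cells/well; induce mutant p53 with 0.5 ug/mL doxycycline for 24 h; treat with compound 6 h; add equal volume One-Glo, shake 5 min at room temperature; measure luciferase immediately.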

[2] = NClH1299-inducible p53 Y220C cells, CellTiter-Glo
[3] = NClH1299-inducible p53 R273H cells, CellTiter-Glo
[4] = AC50, luciferase reporter, NClH1299 inducible p53 Y220C
[5] = Emax, luciferase reporter, NClH1299 inducible p53 Y220C
[6] = NClH1299-inducible p53 Y220C cells
[7] = NClH1299-inducible p53 R273H cells
[8] = AC50, NClH1299 cells with inducible p53 Y220C
[9] = Emax, NClH1299 cells with inducible p53 Y220C, 10 uM tool compound as positive control
[10] = luciferase reporter, NClH1299 inducible p53 Y220C, 10 uM tool compound as positive control
[11] = luciferase reporter, NClH1299 inducible p53 Y220C

T1 sequence (P04637 94-293, stated change not applied): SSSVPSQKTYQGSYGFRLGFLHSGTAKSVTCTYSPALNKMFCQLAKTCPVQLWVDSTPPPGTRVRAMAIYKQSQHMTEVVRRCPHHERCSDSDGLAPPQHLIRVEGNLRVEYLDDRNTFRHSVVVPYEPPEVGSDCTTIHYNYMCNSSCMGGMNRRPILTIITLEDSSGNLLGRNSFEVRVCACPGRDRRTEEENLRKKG

Structure (SMILES) | Kd ([1]; SPR, p53 Y220C) [nM] | IC50 (H1299 p53 Y220C; [2]) [nM] | IC50 (H1299 p53 R273H; [3]) [nM] | IC50 (NUGC3 p53 Y220C; NUGC3 cells, CellTiter-Glo) [nM] | AC50 (p53 Y220C; [4]) [nM] | Emax (p53 Y220C; [5]) [%] | also measured
COc1ccc(C(N)=O)cc1NCC#Cc1nn2c(N[C@@H]3CCN(C)C[C@@H]3F)cccc2c1SC(F)(F)F [Example 232] | < 10 | < 750 | ≥ 10000 | < 750 | < 750 | 80 to 90 | 
CN1CC[C@@H](Nc2cccn3c(SC(F)(F)F)c(C#CCNc4ccc(P(C)(C)=O)c5c4OCC5)cc23)[C@@H](F)C1 [Example 449] | < 10 | < 750 | 5000 to 8000 | < 750 | < 750 | > 90 | 
COc1ccc(C(=O)NC[C@@H](O)CO)cc1NCC#Cc1cc2c(N[C@@H]3CCN(C)C[C@@H]3F)cccn2c1SC(F)(F)F [Example 462] | < 10 |  |  |  |  |  | IC50 (H1299 p53 Y220C; [6]): < 750 nM; IC50 (H1299 p53 R273H; [7]): ≥ 10000 nM; IC50 (NUGC3 p53 Y220C; NUGC3 cells): < 750 nM; AC50 (p53 Y220C; [8]): < 750 nM; Emax (p53 Y220C; [9]): > 90%
CNC(=O)c1ccc(OC)c(NCC#Cc2cc3c(N[C@@H]4CN(C)C[C@@H]4F)nccn3c2SC(F)(F)F)c1 [Example 208] |  |  |  |  |  |  | Kd ([1]; SPR, kinetic KD, p53 Y220C): < 10 nM; IC50 (H1299 p53 Y220C; CellTiter-Glo, H1299 p53 Y220C): < 750 nM; IC50 (H1299 p53 R273H; CellTiter-Glo, H1299 p53 R273H): ≥ 10000 nM; IC50 (NUGC3 p53 Y220C; CellTiter-Glo, NUGC3 p53 Y220C): < 750 nM; Emax (p53 Y220C; [10]): > 90%; AC50 (p53 Y220C; [11]): < 750 nM
COc1cc(C(=O)NC[C@H](O)CO)ccc1NCC#Cc1cc2c(N[C@@H]3CCN(C)C[C@@H]3F)cccn2c1SC(F)(F)F [Example 422] | < 10 | < 750 | ≥ 10000 | < 750 | < 750 | > 90 | 
CCc1ncc(C(=O)NC)cc1NCC#Cc1nc2c(N[C@@H]3CCN(C)C[C@@H]3F)cccn2c1SC(F)(F)F [Example 273] | < 10 | < 750 | ≥ 10000 | < 750 | < 750 | > 90 | 
COc1ncc(C(N)=O)cc1NCC#Cc1nn2c(N[C@@H]3CCN(C)C[C@@H]3F)cccc2c1SC(F)(F)F [Example 276] | < 10 | < 750 | < 5000 | < 750 | < 750 | 80 to 90 | 
CN1CC[C@@H](Nc2cccn3c(SC(F)(F)F)c(C#CCNc4ccc(C(=O)NCCS(C)(=O)=O)cc4)cc23)[C@@H](F)C1 [Example 430, 4-{[3-(8-{[(3S,4R)-3-fluoro-1-methylpiperidin-4-yl]amino}-3-[(trifluoromethyl)sulfanyl]indolizin-2-yl)prop-2-yn-1-yl]amino}-N-(2-methanesulfonylethyl)benzamide] | < 10 | < 750 | ≥ 10000 | < 750 | < 750 | > 90 | 
CNC(=O)c1ccc(OC2COC2)c(NCC#Cc2cc3c(N[C@@H]4CCN(C)C[C@@H]4F)cccn3c2SC(F)(F)F)c1 [Example 499] | < 10 |  |  |  |  |  | IC50 (H1299 p53 Y220C; [6]): < 750 nM; IC50 (H1299 p53 R273H; [7]): 5000 to 8000 nM; IC50 (NUGC3 p53 Y220C; NUGC3 cells): < 750 nM; AC50 (p53 Y220C; [8]): < 750 nM; Emax (p53 Y220C; [9]): > 90%
CN1CC[C@@H](Nc2cccn3c(SC(F)(F)F)c(C#CCNc4ccc(C(=O)NC[C@H]5COCCO5)cc4)cc23)[C@@H](F)C1 [Example 407] | < 10 | < 750 | 5000 to 8000 | < 750 | < 750 | > 90 | 
CNC(=O)c1ccc(NCC#Cc2cc3c(N[C@@H]4CCN(C)C[C@@H]4F)cccn3c2SC(F)(F)F)c(OCF)c1 [Example 436, 4-{[3-(8-{[(3S,4R)-3-fluoro-1-methylpiperidin-4-yl]amino}-3-[(trifluoromethyl)sulfanyl]indolizin-2-yl)prop-2-yn-1-yl]amino}-3-(fluoromethoxy)-N-methylbenzamide] | < 10 | < 750 | ≥ 10000 | < 750 | < 750 | > 90 | 
COc1ccc(C(N)=O)nc1NCC#Cc1nn2c(N[C@@H]3CCN(C)C[C@@H]3F)cccc2c1SC(F)(F)F [Example 235] | < 10 | 750 to 1500 | ≥ 10000 | 1500 to 3000 | 750 to 1500 | 80 to 90 | 
CNC(=O)c1ccc(OC)c(NCC#Cc2cc3c(N[C@@H]4CNC[C@@H]4F)cccn3c2SC(F)(F)F)c1 [Example 478] | < 10 |  |  |  |  |  | IC50 (H1299 p53 Y220C; [6]): < 750 nM; IC50 (H1299 p53 R273H; [7]): ≥ 10000 nM; IC50 (NUGC3 p53 Y220C; NUGC3 cells): < 750 nM; AC50 (p53 Y220C; [8]): < 750 nM; Emax (p53 Y220C; [9]): > 90%
CNC(=O)c1ccc(OC)c(NCC#Cc2nc3c(N[C@H]4[C@H]5CC[C@@H]4NC5)cccn3c2SC(F)(F)F)c1 [Example 244] | < 10 | 1500 to 3000 | ≥ 10000 | 750 to 1500 | > 3000 | 80 to 90 | 
CNC(=O)c1ccc(NCC#Cc2cc3c(N[C@@H]4CCNC[C@@H]4F)nccn3c2SC(F)(F)F)cc1 [Example 298] |  | < 750 | ≥ 10000 | < 750 | < 750 | > 90 | Kd [1]: < 10 nM
CCNC(=O)c1ccc(NCC#Cc2nn3c(N[C@@H]4CCN(C)C[C@@H]4F)cccc3c2SC(F)(F)F)c(OC)c1 [Example 316] | < 10 | < 750 | ≥ 10000 | < 750 | < 750 | > 90 | 
CNC(=O)c1ccc(NCC#Cc2cc3c(N[C@@H]4CCN(C5COC5)C[C@@H]4F)cccn3c2SC(F)(F)F)c(OC)c1 [Example 504, 4-{[3-(8-{[(3S,4R)-3-fluoro-1-(oxetan-3-yl)piperidin-4-yl]amino}-3-[(trifluoromethyl)sulfanyl]indolizin-2-yl)prop-2-yn-1-yl]amino}-3-methoxy-N-methylbenzamide] | < 10 |  |  |  |  |  | IC50 (H1299 p53 Y220C; [6]): < 750 nM; IC50 (H1299 p53 R273H; [7]): < 5000 nM; IC50 (NUGC3 p53 Y220C; NUGC3 cells): < 750 nM; AC50 (p53 Y220C; [8]): < 750 nM; Emax (p53 Y220C; [9]): > 90%
CN1CC[C@@H](Nc2cccn3c(SC(F)(F)F)c(C#CCNc4ccc(C(=O)N[C@H]5C[C@@H](O)C5)cc4)cc23)[C@@H](F)C1 [Example 465] | < 10 |  |  |  |  |  | IC50 (H1299 p53 Y220C; [6]): < 750 nM; IC50 (H1299 p53 R273H; [7]): ≥ 10000 nM; IC50 (NUGC3 p53 Y220C; NUGC3 cells): < 750 nM; AC50 (p53 Y220C; [8]): < 750 nM; Emax (p53 Y220C; [9]): > 90%
COc1cc(S(C)(=O)=O)ccc1NCC#Cc1cc2c(N[C@@H]3CCNC[C@@H]3F)cccn2c1SC(F)F [Example 394] | < 10 | < 750 | 5000 to 8000 | < 750 | < 750 | > 90 | 
CN1CCO[C@H](CNC(=O)c2ccc(NCC#Cc3cc4c(N[C@@H]5CCN(C)C[C@@H]5F)cccn4c3SC(F)(F)F)cc2)C1 [Example 388] | < 10 | < 750 | 5000 to 8000 | < 750 | < 750 | 80 to 90 | 
CNC(=O)c1ccc(NCC#Cc2cc3c(N[C@@H]4CCNC[C@@H]4F)cccn3c2SC(F)(F)F)c(OC)n1 [Example 488] | < 10 |  |  |  |  |  | IC50 (H1299 p53 Y220C; [6]): < 750 nM; IC50 (H1299 p53 R273H; [7]): 5000 to 8000 nM; IC50 (NUGC3 p53 Y220C; NUGC3 cells): < 750 nM; AC50 (p53 Y220C; [8]): < 750 nM; Emax (p53 Y220C; [9]): > 90%
CN1CC[C@@H](Nc2cccn3c(SC(F)(F)F)c(C#CCNc4ccc(S(C)(=O)=O)cc4)cc23)[C@@H](F)C1 [Example 418] | < 10 | < 750 | ≥ 10000 | < 750 | < 750 | > 90 | 
CNC(=O)c1ccc(N[C@H](C)C#Cc2nc3c(N[C@@H]4CCN(C)C[C@@H]4F)cccn3c2SC(F)(F)F)c(OC)c1 [Example 133] |  |  |  |  |  |  | Kd ([1]; SPR, kinetic KD, p53 Y220C): 10 to 100 nM; IC50 (H1299 p53 Y220C; CellTiter-Glo, H1299 p53 Y220C): > 3000 nM; IC50 (H1299 p53 R273H; CellTiter-Glo, H1299 p53 R273H): 5000 to 8000 nM; IC50 (NUGC3 p53 Y220C; CellTiter-Glo, NUGC3 p53 Y220C): > 3000 nM; Emax (p53 Y220C; [10]): > 90%; AC50 (p53 Y220C; [11]): > 3000 nM
CNC(=O)c1ccc(O[C@H]2C[C@H](O)C2)c(NCC#Cc2cc3c(N[C@@H]4CCN(C)C[C@@H]4F)cccn3c2SC(F)(F)F)c1 [Example 497, 3-{[3-(8-{[(3S,4R)-3-fluoro-1-methylpiperidin-4-yl]amino}-3-[(trifluoromethyl)sulfanyl]indolizin-2-yl)prop-2-yn-1-yl]amino}-N-methyl-4-[(1r,3r)-3-hydroxycyclobutoxy]benzamide] | < 10 |  |  |  |  |  | IC50 (H1299 p53 Y220C; [6]): < 750 nM; IC50 (H1299 p53 R273H; [7]): ≥ 10000 nM; IC50 (NUGC3 p53 Y220C; NUGC3 cells): < 750 nM; AC50 (p53 Y220C; [8]): < 750 nM; Emax (p53 Y220C; [9]): > 90%
